According to patent publication US7579369B2, “CB 1 receptor inverse agonists” (Hoffmann-La Roche Inc., priority 2003, dated 2009):
pIC50: −log10 of the molar value.

These molecules were tested against T1, human cannabis CB1 receptor (Homo sapiens, UniProt P21554) (assay: Affinity for cannabinoid CB1 receptors, [3H]-CP-55,940 radioligand binding on HEK cell membranes). Details: affinity for the CB1 receptor.
T1 construct: expressed in transfected cells; host or cells: human embryonic kidney (HEK) cells, Semliki Forest Virus system, membrane preparation
Experimental: The affinity of the compounds of the invention for cannabinoid CB1 receptors was determined using membrane preparations of human embryonic kidney (HEK) cells in which the human cannabis CB1 receptor is transiently transfected using the Semliki Forest Virus system in conjunction with [3H]-CP-55,940 as radioligand. After incubation of a freshly prepared cell membrane preparation with the [3H]-ligand, with or without addition of compounds of the invention, separation of bound and free ligand was performed by filtration over glassfiber filters. Radioactivity on the filter was measured by liquid scintillation counting.
The compounds of formula (I) show an excellent affinity for the CB1 receptor, determined with the experimental conditions described in Devane et. al. Mol. Pharmacol. 34 (1988) 605-613.

T1 sequence (P21554 whole entry): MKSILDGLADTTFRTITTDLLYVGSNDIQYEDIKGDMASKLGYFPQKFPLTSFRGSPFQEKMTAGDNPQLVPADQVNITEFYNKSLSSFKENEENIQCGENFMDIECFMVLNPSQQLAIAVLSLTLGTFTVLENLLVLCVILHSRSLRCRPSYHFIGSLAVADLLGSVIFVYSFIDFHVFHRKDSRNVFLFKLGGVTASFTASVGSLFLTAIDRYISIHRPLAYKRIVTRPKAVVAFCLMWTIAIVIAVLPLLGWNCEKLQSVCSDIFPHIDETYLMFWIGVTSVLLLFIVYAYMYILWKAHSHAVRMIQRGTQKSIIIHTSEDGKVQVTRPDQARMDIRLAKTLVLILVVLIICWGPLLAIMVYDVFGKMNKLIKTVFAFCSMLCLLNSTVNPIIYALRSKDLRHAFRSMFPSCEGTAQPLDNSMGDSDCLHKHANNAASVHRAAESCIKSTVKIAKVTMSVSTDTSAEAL

Compound | pIC50
Cc1c(C(=O)NC2CCCCC2)cc(-c2cc(C(F)(F)F)ccc2F)n1C[C@@H]1CCCC[C@H]1O (racemic) [Example 282, 5-(2-Fluoro-5-trifluoromethyl-phenyl)-1-((1SR,2RS)-2-hydroxy-cyclohexylmethyl)-2-methyl-1H-pyrrole-3-carboxylic acid cyclohexylamide] | > 5.70
Cc1c(C(=O)NC2CCCCC2)cc(-c2cc(C(F)(F)F)ccc2F)n1C[C@H]1CCCC[C@H]1O (racemic) [Example 283, 5-(2-Fluoro-5-trifluoromethyl-phenyl)-1-((1RS,2RS)-2-hydroxy-cyclohexylmethyl)-2-methyl-1H-pyrrole-3-carboxylic acid cyclohexylamide] | > 5.70
Cc1c(C(=O)N[C@@H]2CCCC[C@H]2O)cc(-c2cc(C(F)(F)F)ccc2F)n1CC1CCCCC1O (mixture of isomers) [Example 286] | > 5.70
Cc1c(C(=O)NC2CCCCC2)cc(-c2cc(C(F)(F)F)ccc2Cl)n1C[C@H]1CCCC[C@H]1O (racemic) [Example 294, 5-(2-Chloro-5-trifluoromethyl-phenyl)-1-((1RS,2RS)-2-hydroxy-cyclohexylmethyl)-2-methyl-1H-pyrrole-3-carboxylic acid cyclohexylamide] | > 5.70
CCCCNC(=O)c1cc(-c2ccc(N3CCCC3)cc2)n(CC2CCCCC2)c1C [Example 19, Cyclohexylmethyl-2-methyl-5-(4-pyrrolidin-1-yl-phenyl)-1H-pyrrole-3-carboxylic acid butylamide] | > 5.70
CCCCNC(=O)c1cc(-c2cc(OC)ccc2OC)n(CC2CCCCC2)c1C [Example 21, Cyclohexylmethyl-5-(2,5-dimethoxy-phenyl)-2-methyl-1H-pyrrole-3-carboxylic acid butylamide] | > 5.70
CCCCNC(=O)c1cc(-c2cc(C(F)(F)F)cc(C(F)(F)F)c2)n(CC2CCCCC2)c1C [Example 41, 5-(3,5-Bis-trifluoromethyl-phenyl)-1-cyclohexylmethyl-2-methyl-1H-pyrrole-3-carboxylic acid butylamide] | > 5.70
CCCCNC(=O)c1nc(-c2ccccc2OC)n(CC2CCCCC2)c1C [Example 52, Cyclohexylmethyl-2-(2-methoxy-phenyl)-5-methyl-1H-imidazole-4-carboxylic acid butylamide] | > 5.70
COc1ccccc1-c1nc(C(=O)NN2CCCCC2)c(C)n1CC1CCCCC1 [Example 54, Cyclohexylmethyl-2-(2-methoxy-phenyl)-5-methyl-1H-imidazole-4-carboxylic acid piperidin-1-ylamide] | > 5.70
COc1ccc(Cl)cc1-c1cc(C(=O)NC2CCCCC2)c(C)n1CC1CCCCC1 [Example 89, 5-(5-Chloro-2-methoxy-phenyl)-1-cyclohexylmethyl-2-methyl-1H-pyrrole-3-carboxylic acid cyclohexylamide] | > 5.70
COc1cc(C)c(Cl)cc1-c1cc(C(=O)NC2CCCCC2)c(C)n1CC1CCCCC1 [Example 91, 5-(5-Chloro-2-methoxy-4-methyl-phenyl)-1-cyclohexylmethyl-2-methyl-1H-pyrrole-3-carboxylic acid cyclohexylamide] | > 5.70
COc1ccc(F)cc1-c1cc(C(=O)NC2CCCCC2)c(C)n1CC1CC1 [Example 194, Cyclopropylmethyl-5-(5-fluoro-2-methoxy-phenyl)-2-methyl-1H-pyrrole-3-carboxylic acid cyclohexylamide] | > 5.70
Cc1c(C(=O)NN2CCCCC2)cc(-c2cc(C(F)(F)F)ccc2Cl)n1CC1CCCCC1 [Example 264, 5-(2-Chloro-5-trifluoromethyl-phenyl)-1-cyclohexylmethyl-2-methyl-1H-pyrrole-3-carboxylic acid piperidin-1-ylamide] | > 5.70
Cc1c(C(=O)N[C@@H]2CCCC[C@H]2O)cc(-c2cc(C(F)(F)F)ccc2C(F)(F)F)n1CCC1CC1 [Example 290, 5-(2,5-Bis-trifluoromethyl-phenyl)-1-(2-cyclopropyl-ethyl)-2-methyl-1H-pyrrole-3-carboxylic acid ((1R,2R)-2-hydroxy-cyclohexyl)-amide] | > 5.70
Cc1ccc(C(F)(F)F)cc1-c1cc(C(=O)N[C@@H]2CCCC[C@H]2O)c(C)n1CC1CCCCC1 [Example 301, Cyclohexylmethyl-2-methyl-5-(2-methyl-5-trifluoromethyl-phenyl)-1H-pyrrole-3-carboxylic acid ((1R,2R)-2-hydroxy-cyclohexyl)-amide] | > 5.70
